Legend:
[1] = tested on: Mia Paca-2 pancreatic cancer; test: In vivo efficacy test on Mia Paca-2 pancreatic cancer; parameters: species or system mice; conditions: for Average tumor weight at the end of the treatment / Tumor weight inhibition rate (relative to the vehicle group): BID
Experimental: After one week of adaptive feeding of mice, Mia Paca-2 cells in a logarithmic phase were resuspended in serum-free DMEM, and then mixed with Matrigel in a ratio of 1: 1. 1 × 10^7 Mia Paca-2 cells were inoculated subcutaneously at the right flank at 100 µL per mouse, and tumor growth was observed regularly. When the tumor grew to an average volume of 150 to 200 mm^3, the mice were randomly divided into a model group and an administration group (single drug, in combination with trametinib) based on the tumor size and body weight. The tumor size and body weight were measured and recorded before and during the administration. After the treatment, the tumor size in the model group was compared with that in the administration group to determine the efficacy.

[2] = tested on: ERK phosphorylation level in DLD-1 cells; test: Inhibition of ERK phosphorylation level in DLD-1 cells (intracellular western blot); format: cell-based; conditions: Homo sapiens
Experimental: Intracellular western blot quantitative analysis was used to detect the inhibitory level of compounds on ERK phosphorylation in DLD-1 cells.
DLD-1 cells (ATCC, CCL-221) were seeded in a T75 culture flask at 2.5 × 10^6 cells/flask, and cultured in a RPMI 1640 medium containing 10% FBS for 2 days. On day 3, the cells were seeded on a 384-well plate, and cultured overnight at 37°C, 5% CO2. After overnight culture, the plate was added with serially diluted compounds (the final content of DMSO was 0.5%), the negative group was added with DMSO, and incubated in a 37°C, 5% CO2 incubator.
The cells were fixed, washed once with PBS, treated to disrupt membranes, and blocked at room temperature for 1 h. The blocking solution was removed. The plate was added with primary antibody (CST, Cat. No. #4370S), and incubated overnight at 4°C. The plate was washed 3 times with PBST (PBS solution added with 0.05% Tween-20), and soaked for 2 min each time. The plate was added with secondary antibody (LI-COR, Cat. No. 926-32211), and incubated at room temperature in the dark. The plate was washed 3 times with PBST, and soaked for 2 min each time. The plate was centrifuged at 1000 rpm for 1 min, scanned on a two-color infrared laser imaging system (Odyssey® CLX) to read the signal. Relative signal = 800-channel signal values/700-channel signal values. […]
IC50 values were calculated using Graphpad 5 software.

## Cc1nc(N[C@H](C)c2cccc(S(F)(F)(F)(F)F)c2)c2cn(C3(CF)CC3)c(=O)cc2n1 [Compound of formula I, (R)-6-(1-(fluoromethyl)cyclopropyl)-2-methyl-4-((1-(3-(pentafluorosulfanyl)phenyl)ethyl)amino)pyrido[4,3-d]pyrimidin-7(6H)-one]
[1]; Mia Paca-2, 25 mg/kg
  Average tumor weight at the end of the treatment: 0.35 g
  Tumor weight inhibition rate (relative to the vehicle group): 70%
[1]; Mia Paca-2, 50 mg/kg
  Average tumor weight at the end of the treatment: 0.27 g
  Tumor weight inhibition rate (relative to the vehicle group): 76%
[1]; alone (single drug)
  inhibitory effect on Mia Paca-2 tumor growth: significant inhibitory effect
[1]; combination with trametinib vs single use, Mia Paca-2
  efficacy of combined use compared with single use: more effective than the single use
[1]; in combination with trametinib
  inhibitory effect on Mia Paca-2 tumor growth: significant inhibitory effect
[2]
  IC50: 56 nM

Source: patent publication EP4570800A1, “CRYSTAL FORM OF PYRIDINOPYRIMIDINONE COMPOUND, ACID SALT THEREOF, CRYSTAL FORM OF ACID SALT THEREOF, AND USE” (Wuhan Humanwell Innovative Drug Research and Development …, priority 2022, dated 2024)
